Measured values published in patent US8192962B2, “Processes for detecting toxic substances” (Daikin Industries, Ltd., priority 2001, dated 2012).

System: Energy system protein genes
Test: DNA chip mRNA expression in yeast, energy system protein genes (Table 4)
Type: cell-based, Saccharomyces cerevisiae S288C
Description: Yeast (Saccharomyces cerevisiae S288C (α SUC2mal mel gap2 CUP1)) were incubated at 25° C. on YPD medium (yeast extract 1%, polypepton 2%, glucose 2%). One of toxic chemical substances was added to the cells at logarithmic growth phase, and the cells were further incubated for two hours. Cells were cultured without any chemical substance in the same condition, and were used as control. Concentrations of the chemical substances were defined to inhibit the growth of the yeast but not lead to death.
After completion of the incubation, the culture was centrifuged to collect the cells. To the cells, sodium acetate buffer (50 mM sodium acetate, 10 mM EDTA, 1% SDS) was added, and the mixture was shaken at 65° C. for five minutes, followed by returning to room temperature, and obtaining the supernatant, of which the procedures were repeated two times. To the supernatant, ½ amount of a solution of phenol/chloroform was added, and the mixture was centrifuged to give a supernatant, which was added with an equal amount of chloroform, and the mixture was centrifuged to give a supernatant. To the supernatant, an equal amount of isopropanol containing 0.3 M sodium acetate was added, and the mixture was allowed to stand at room temperature for 30 minutes, after which the mixture was centrifuged to give a sediment of the whole RNAs. Seventy % ethanol was added to the sediment, and the mixture was again centrifuged to give a sediment, which was then dried and dissolved in water. mRNA was isolated from the whole RNAs as followings. In view of the fact that a poly A chain is attached to the 3′ terminus of mRNA, a polynucleotide having a poly T structure which was immobilized on the surface of latex beads was used to trap the mRNA, and then the mRNA was washed and eluted with spine column (Oligotex-dT30<Super>mRNA Purification Kit, Takara). Reverse transcription of the mRNA was conducted with a reverse transcriptase (Super Script II Reverse Transcriptase; catalogue No. 18064-014, GibcoBRL) using fluorescence-labeled nucleotides to give cDNAs that were introduced with Cy3-dUTP or Cy5-dUTP during the reverse transcription.
The labeled cDNAs were dissolved in TE buffer (10mM Tris-HCl/1 mM EDTA, pH8.0), and the solution was dropped on the DNA chip containing the whole genes of yeast (DNA Chip Research Inc. Japan) so that the cDNAs were hybridized on the DNA chip at 65° C. for over 12 hours. The fluoresces intensity of the DNA chip was read with a scanner, and the ratio relative to the fluorescence intensity resulting from the absence of chemical substance was estimated as the following, which is shown in Tables 1 to 9: […]

## N#Cc1c(Cl)c(Cl)c(Cl)c(C#N)c1Cl [(9), 2,4,5,6-tetrachloro-1,3-benzenedicarbonitrile]
Yeast gene YJL121C, cells incubated two hours with the chemical substance
  The level of expressed mRNA in the presence of chemical substance/The level of expressed mRNA in the absence of chemical substance: 0.1
Yeast gene YJL166W, cells incubated two hours with the chemical substance
  The level of expressed mRNA in the presence of chemical substance/The level of expressed mRNA in the absence of chemical substance: 1.3
Yeast gene YJL216C, cells incubated two hours with the chemical substance
  The level of expressed mRNA in the presence of chemical substance/The level of expressed mRNA in the absence of chemical substance: 1.5
Yeast gene YJR009C
  The level of expressed mRNA in the presence of chemical substance/The level of expressed mRNA in the absence of chemical substance: 1.1
Yeast gene YJR048W
  The level of expressed mRNA in the presence of chemical substance/The level of expressed mRNA in the absence of chemical substance: 0.5
Yeast gene YJR121W, cells incubated two hours with the chemical substance
  The level of expressed mRNA in the presence of chemical substance/The level of expressed mRNA in the absence of chemical substance: 0.8
Yeast gene YJR155W
  The level of expressed mRNA in the presence of chemical substance/The level of expressed mRNA in the absence of chemical substance: 38.2
Yeast gene YKL016C, cells incubated two hours with the chemical substance
  The level of expressed mRNA in the presence of chemical substance/The level of expressed mRNA in the absence of chemical substance: 1.3
Yeast gene YKL060C, cells incubated two hours with the chemical substance
  The level of expressed mRNA in the presence of chemical substance/The level of expressed mRNA in the absence of chemical substance: 0.3
Yeast gene YKL141W, cells incubated two hours with the chemical substance
  The level of expressed mRNA in the presence of chemical substance/The level of expressed mRNA in the absence of chemical substance: 0.8
Yeast gene YKL148C, cells incubated two hours with the chemical substance
  The level of expressed mRNA in the presence of chemical substance/The level of expressed mRNA in the absence of chemical substance: 1.7
Yeast gene YKL150W
  The level of expressed mRNA in the presence of chemical substance/The level of expressed mRNA in the absence of chemical substance: 1.1
Yeast gene YKR009C, cells incubated two hours with the chemical substance
  The level of expressed mRNA in the presence of chemical substance/The level of expressed mRNA in the absence of chemical substance: 2.4
Yeast gene YKR058W, cells incubated two hours with the chemical substance, 25° C., YPD medium
  The level of expressed mRNA in the presence of chemical substance/The level of expressed mRNA in the absence of chemical substance: 1.3
Yeast gene YKR097W
  The level of expressed mRNA in the presence of chemical substance/The level of expressed mRNA in the absence of chemical substance: 1.9
Yeast gene YLL041C, cells incubated two hours with the chemical substance
  The level of expressed mRNA in the presence of chemical substance/The level of expressed mRNA in the absence of chemical substance: 0.7
Yeast gene YLR038C, cells incubated two hours with the chemical substance
  The level of expressed mRNA in the presence of chemical substance/The level of expressed mRNA in the absence of chemical substance: 0.4
Yeast gene YLR134W, cells incubated two hours with the chemical substance
  The level of expressed mRNA in the presence of chemical substance/The level of expressed mRNA in the absence of chemical substance: 0.1
Yeast gene YLR258W, cells incubated two hours with the chemical substance
  The level of expressed mRNA in the presence of chemical substance/The level of expressed mRNA in the absence of chemical substance: 0.8
Yeast gene YLR284C, cells incubated two hours with the chemical substance
  The level of expressed mRNA in the presence of chemical substance/The level of expressed mRNA in the absence of chemical substance: 0.9
Yeast gene YLR295C, cells incubated two hours with the chemical substance, 25° C., YPD medium
  The level of expressed mRNA in the presence of chemical substance/The level of expressed mRNA in the absence of chemical substance: 1.4
Yeast gene YLR304C, cells incubated two hours with the chemical substance
  The level of expressed mRNA in the presence of chemical substance/The level of expressed mRNA in the absence of chemical substance: 0.1
Yeast gene YLR345W
  The level of expressed mRNA in the presence of chemical substance/The level of expressed mRNA in the absence of chemical substance: 4.5
Yeast gene YLR354C, cells incubated two hours with the chemical substance
  The level of expressed mRNA in the presence of chemical substance/The level of expressed mRNA in the absence of chemical substance: 0.4
Yeast gene YLR377C, cells incubated two hours with the chemical substance
  The level of expressed mRNA in the presence of chemical substance/The level of expressed mRNA in the absence of chemical substance: 1.8
Yeast gene YLR395C, cells incubated two hours with the chemical substance
  The level of expressed mRNA in the presence of chemical substance/The level of expressed mRNA in the absence of chemical substance: 1.0
Yeast gene YML087C
  The level of expressed mRNA in the presence of chemical substance/The level of expressed mRNA in the absence of chemical substance: 1.9
Yeast gene YML120C, cells incubated two hours with the chemical substance
  The level of expressed mRNA in the presence of chemical substance/The level of expressed mRNA in the absence of chemical substance: 1.3
Yeast gene YML129C, cells incubated two hours with the chemical substance
  The level of expressed mRNA in the presence of chemical substance/The level of expressed mRNA in the absence of chemical substance: 1.4
Yeast gene YMR073C, cells incubated two hours with the chemical substance
  The level of expressed mRNA in the presence of chemical substance/The level of expressed mRNA in the absence of chemical substance: 1.2
Yeast gene YMR118C
  The level of expressed mRNA in the presence of chemical substance/The level of expressed mRNA in the absence of chemical substance: 9.3
Yeast gene YMR205C, cells incubated two hours with the chemical substance
  The level of expressed mRNA in the presence of chemical substance/The level of expressed mRNA in the absence of chemical substance: 0.3
Yeast gene YMR261C, cells incubated two hours with the chemical substance
  The level of expressed mRNA in the presence of chemical substance/The level of expressed mRNA in the absence of chemical substance: 1.6
Yeast gene YMR267W, cells incubated two hours with the chemical substance, 25° C., YPD medium
  The level of expressed mRNA in the presence of chemical substance/The level of expressed mRNA in the absence of chemical substance: 0.4
Yeast gene YMR323W, cells incubated two hours with the chemical substance
  The level of expressed mRNA in the presence of chemical substance/The level of expressed mRNA in the absence of chemical substance: 0.5
Yeast gene YNL071W
  The level of expressed mRNA in the presence of chemical substance/The level of expressed mRNA in the absence of chemical substance: 1.1
Yeast gene YNL202W, cells incubated two hours with the chemical substance
  The level of expressed mRNA in the presence of chemical substance/The level of expressed mRNA in the absence of chemical substance: 1.3
Yeast gene YNL241C
  The level of expressed mRNA in the presence of chemical substance/The level of expressed mRNA in the absence of chemical substance: 3.4
Yeast gene YNL331C
  The level of expressed mRNA in the presence of chemical substance/The level of expressed mRNA in the absence of chemical substance: 42.6
Yeast gene YOL086C, cells incubated two hours with the chemical substance
  The level of expressed mRNA in the presence of chemical substance/The level of expressed mRNA in the absence of chemical substance: 0.1
Yeast gene YOL165C
  The level of expressed mRNA in the presence of chemical substance/The level of expressed mRNA in the absence of chemical substance: 46.9
Yeast gene YOR142W, cells incubated two hours with the chemical substance
  The level of expressed mRNA in the presence of chemical substance/The level of expressed mRNA in the absence of chemical substance: 1.1
Yeast gene YOR178C, cells incubated two hours with the chemical substance
  The level of expressed mRNA in the presence of chemical substance/The level of expressed mRNA in the absence of chemical substance: 0.2
Yeast gene YOR388C, cells incubated two hours with the chemical substance
  The level of expressed mRNA in the presence of chemical substance/The level of expressed mRNA in the absence of chemical substance: 0.1
Yeast gene YPL031C, cells incubated two hours with the chemical substance
  The level of expressed mRNA in the presence of chemical substance/The level of expressed mRNA in the absence of chemical substance: 5.7
Yeast gene YPL061W, cells incubated two hours with the chemical substance
  The level of expressed mRNA in the presence of chemical substance/The level of expressed mRNA in the absence of chemical substance: 1.3
Yeast gene YPL088W
  The level of expressed mRNA in the presence of chemical substance/The level of expressed mRNA in the absence of chemical substance: 0.6
Yeast gene YPL171C
  The level of expressed mRNA in the presence of chemical substance/The level of expressed mRNA in the absence of chemical substance: 60.0
Yeast gene YPL240C
  The level of expressed mRNA in the presence of chemical substance/The level of expressed mRNA in the absence of chemical substance: 3.5
Yeast gene YPL262W, cells incubated two hours with the chemical substance
  The level of expressed mRNA in the presence of chemical substance/The level of expressed mRNA in the absence of chemical substance: 1.4
Yeast gene YPL275W, cells incubated two hours with the chemical substance
  The level of expressed mRNA in the presence of chemical substance/The level of expressed mRNA in the absence of chemical substance: 0.2
Yeast gene YPR048W, cells incubated two hours with the chemical substance
  The level of expressed mRNA in the presence of chemical substance/The level of expressed mRNA in the absence of chemical substance: 4.0
Yeast gene YPR184W, cells incubated two hours with the chemical substance
  The level of expressed mRNA in the presence of chemical substance/The level of expressed mRNA in the absence of chemical substance: 1.9
